The text below walks through data of patent publication US7256211B1, “8-azaprostaglandin derivatives and medical use thereof” (ONO Pharmaceutical Co., Ltd., priority 2003, dated 2007).

Structures are written as SMILES.

The target of the test is T1, EP4 receptor (Mus musculus, UniProt P32240).
T1 construct: expressed in transfected cells; host or cells: CHO cells (membrane fraction)
Description: Receptor-binding experiment using CHO cell membranes expressing prostanoid receptor sub-types (3H-PGE2 displacement). Conditions: membrane fraction of CHO cells expressing murine EP4; 3H-PGE2 2.5 nM; Ki=IC50/(1+([C]/Kd)). As to the method: (i) Experiment for Receptor-Binding Using Cells which Express Prostanoid Receptor Sub-Types
According to the method of Sugimoto et al. (J. Biol. Chem., 267, 6463–6466 ([…])), CHO cells which expressed prostanoid receptor sub-types (murine EP1, EP2, EP3α, and EP4 respectively) were prepared and used as membrane authentic samples.
A reaction solution (200 μL) containing the prepared membrane fraction (0.5 mg/ml) and ^3H-PGE2 was incubated at room temperature for an hour. The reaction was terminated with ice cold buffer (3 mL), and the reaction mixture was suction filtrated under reduced pressure through a glass filter (GF/B), on which the binding ^3H-PGE2 was trapped, and the binding radioactivity was measured by means of a liquid scintillator.
The Kd value was obtained from the Scatchard plots (Ann. N.Y. Acad. Sci., 51, 660 (1949)). Non-specific binding was obtained as the binding in the presence of an excess amount (2.5 μM) of unlabelled PGE2. Measurement of the binding inhibition for ^3H-PGE2 with the compounds of the invention was performed by adding ^3H-PGE2 (2.5 nM) and a series of concentrations of the compounds of the invention. In this reaction, the following buffer was used in all cases. • Buffer: 10 mM potassium phosphate (pH6.0), 1 mM EDTA, 10 mM MgCl2 and 0.1M NaCl.
Dissociation constant Ki (μM) of each compounds was calculated from the following equation. […]

T1 sequence (P32240 whole entry): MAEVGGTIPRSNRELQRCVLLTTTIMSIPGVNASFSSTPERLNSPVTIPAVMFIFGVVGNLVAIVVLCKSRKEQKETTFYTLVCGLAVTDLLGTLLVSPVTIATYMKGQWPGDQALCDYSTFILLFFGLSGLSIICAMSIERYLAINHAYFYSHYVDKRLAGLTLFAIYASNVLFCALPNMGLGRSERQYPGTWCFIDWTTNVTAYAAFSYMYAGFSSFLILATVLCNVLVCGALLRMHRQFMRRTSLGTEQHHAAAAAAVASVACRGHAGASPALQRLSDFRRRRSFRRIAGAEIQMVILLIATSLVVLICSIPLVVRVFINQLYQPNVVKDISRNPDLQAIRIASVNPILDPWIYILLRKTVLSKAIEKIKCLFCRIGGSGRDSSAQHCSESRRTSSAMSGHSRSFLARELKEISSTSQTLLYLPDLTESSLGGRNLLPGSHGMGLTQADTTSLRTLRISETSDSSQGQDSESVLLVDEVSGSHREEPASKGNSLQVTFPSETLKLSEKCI

Consider `Cc1cc(C)cc(C[C@H](O)/C=C/[C@H]2CCC(=O)N2CCc2ccc(C(=O)O)cc2)c1` [Example 5, (15α,13E)-1,6-(1,4-interphenylene)-9-oxo-15-hydroxy-16-(3,5-dimethylphenyl)-2,3,4,5,17,18,19,20-octanol-8-azaprost-13-enoic acid], for which the affinity, expressed as Ki, was 6.4 nM.
